In BigSolDB 2.1:

C[C@]12CCC3=C4CCC(=O)C=C4CC[C@H]3[C@@H]1CC[C@@]2(O)CC#N
solubility (mole fraction)
Settings	273.15 K	278.15 K	283.15 K	288.15 K	293.15 K	298.15 K	303.15 K	308.15 K	313.15 K	318.15 K
in DMF	0.0262	0.0275	0.0293	0.0303	0.0318	0.0333	0.0343	0.0354	0.0364	0.0374
in MTBE	0.000258	0.000281	0.000302	0.000327	0.000355	0.000384	0.000416	0.00045	0.000489	0.000531
in THF	0.0106	0.0115	0.0125	0.0138	0.0148	0.0158	0.0172	0.0182	0.0192	0.0201
in acetone	0.00464	0.00495	0.00536	0.00576	0.00616	0.00667	0.00717	0.00777	0.00828	0.00899
in acetonitrile	0.00125	0.00149	0.00172	0.00202	0.00232	0.00273	0.00313	0.00363	0.00414	0.00475
in ethanol	0.000981	0.00122	0.00152	0.00189	0.00233	0.00287	0.00353	0.00434	0.00524	0.00637
in ethyl acetate	0.00145	0.00167	0.00192	0.00215	0.00242	0.00273	0.00304	0.00338	0.00374	0.00414
in isopropanol	0.000738	0.000899	0.0011	0.00131	0.00158	0.00192	0.00227	0.00273	0.00323	0.00378
in methanol	0.00182	0.00209	0.00235	0.00269	0.00303	0.00344	0.00384	0.00434	0.00493	0.00553
in n-propanol	0.00136	0.00161	0.00187	0.00219	0.00256	0.00298	0.00345	0.00399	0.00462	0.00532
in water	5.99e-06	6.47e-06	6.99e-06	7.58e-06	8.19e-06	8.88e-06	9.62e-06	1.04e-05	1.13e-05	1.23e-05
